# Test results reported in paper PMC10331583, “Control of fibrosis with enhanced safety via asymmetric inhibition of prolyl‐tRNA synthetase 1” (EMBO Molecular Medicine, 2023).
# Like-named read-outs stand apart in the source and are kept apart here.
# Key:
# [1] = test system: WI‐26 VA4 cells; test: Collagen ELISA (secreted pro‐collagen I); settings: for activity at 1 µM / activity at 0.0003 µM / activity at 0.001 µM / activity at 0.003 µM / activity at 0.01 µM / activity at 0.03 µM / activity at 0.1 µM / activity at 0.3 µM: Homo sapiens
# [2] = test system: WI‐26 VA4 cells; test: CellTiter‐Glo assay (cytotoxicity)
# Description: (§1) After 24 h, the cells were incubated with various concentrations of compounds for 48 h. The level of ATP as a measure of cell viability was determined using a CellTiter‐Glo® luminescent cell viability assay kit (Promega, G7571) following the manufacturer's instructions.
# (§2) WI‐26 VA4 cells were seeded at 1.2 × 10^4 cells/well in 96‐well white plates. After 24 h, the cells were incubated with the indicated concentrations of compounds for 72 h. The viability was determined as described above.
# [3] = CellTiter‐Glo assay (cytotoxicity); settings: human, WI-26 VA4 cells, CC50 (CellTiter-Glo), 72 h (Fig 5B)
# Description: as §1, §2
# [4] = log(inhibitor) vs. response, variable slope (four parameters), concentration in nM
smiles,measurement,setting,value
"O=C(CC1NCCCC1O)Cn1cnc2cc(Br)c(Cl)cc2c1=O (stereo not shown) [HF, Halofuginone, reference compound]",activity at 1 µM,"[1]; WI26VA4, read-out: Collagen, % of control (single replicates per experiment), 1000 nM",3.91%
same,activity at 0.0003 µM,"[1]; WI26VA4, read-out: Collagen, % of control, average, 0.3 nM, average",96.4%
same,activity at 0.001 µM,"[1]; WI26VA4, read-out: Collagen, % of control, average, 1 nM, average",103%
same,activity at 0.003 µM,"[1]; WI26VA4, read-out: Collagen, % of control, average, 3 nM, average",101%
same,activity at 0.01 µM,"[1]; WI26VA4, read-out: Collagen, % of control, average, 10 nM, average",71.9%
same,activity at 0.03 µM,"[1]; WI26VA4, read-out: Collagen, % of control, average, 30 nM, average",21.6%
same,activity at 0.1 µM,"[1]; WI26VA4, read-out: Collagen, % of control, average, 100 nM, average",3.57%
same,activity at 0.3 µM,"[1]; WI26VA4, read-out: Collagen, % of control, average, 300 nM, average",2.57%
same,activity at 1 µM,"[1]; WI26VA4, read-out: Collagen, % of control, average, 1000 nM, average",3.27%
same,activity at 0.0003 µM,"[1]; WI26VA4, read-out: Efficacy, % of control, average, 0.3 nM",104%
same,activity at 0.001 µM,"[1]; WI26VA4, read-out: Efficacy, % of control, average, 1 nM",104%
same,activity at 0.003 µM,"[1]; WI26VA4, read-out: Efficacy, % of control, average, 3 nM",108%
same,activity at 0.01 µM,"[1]; WI26VA4, read-out: Efficacy, % of control, average, 10 nM",73%
same,activity at 0.03 µM,"[1]; WI26VA4, read-out: Efficacy, % of control, average, 30 nM",24.9%
same,activity at 0.1 µM,"[1]; WI26VA4, read-out: Efficacy, % of control, average, 100 nM",3.73%
same,activity at 0.3 µM,"[1]; WI26VA4, read-out: Efficacy, % of control, average, 300 nM",2.78%
same,activity at 1 µM,"[1]; WI26VA4, read-out: Efficacy, % of control, average, 1000 nM",2.54%
same,activity at 0.0003 µM,"[1]; WI26VA4, read-out: Efficacy, % of control, single replicate, 0.3 nM",114%
same,activity at 0.001 µM,"[1]; WI26VA4, read-out: Efficacy, % of control, single replicate, 1 nM",112%
same,activity at 1 µM,"[1]; WI26VA4, read-out: Efficacy, % of control, single replicate, 1000 nM",2.31%
same,Collagen HillSlope (best-fit value),"[1]; log(inhibitor) vs. response, variable slope (four parameters)",-2.183
same,Collagen LogIC50 (best-fit value),[1]; [4],1.183
same,IC50,"[1]; read-out: IC50 for collagen level, TGF‐β 2 ng/ml, 72 h (Fig 1B)",0.015 µM
same,activity at 0.001 µM,"[2]; Homo sapiens, WI26VA4, read-out: CellTiter-Glo % of control, 1 nM, Experiment #1, replicates",106%
same,activity at 0.01 µM,"[2]; Homo sapiens, WI26VA4, read-out: CellTiter-Glo % of control, 10 nM, Experiment #1, replicates",99.6%
same,activity at 0.01 µM,"[2]; Homo sapiens, WI26VA4, read-out: CellTiter-Glo % of control, 10 nM, Experiment #2, replicates",85.1%
same,activity at 0.03 µM,"[2]; Homo sapiens, WI26VA4, read-out: CellTiter-Glo % of control, 30 nM, Experiment #2, replicates",74.1%
same,activity at 0.1 µM,"[2]; Homo sapiens, WI26VA4, read-out: CellTiter-Glo % of control, 100 nM, Experiment #1, replicates",35.7%
same,activity at 0.1 µM,"[2]; Homo sapiens, WI26VA4, read-out: CellTiter-Glo % of control, 100 nM, Experiment #2, replicates",30%
same,activity at 0.3 µM,"[2]; Homo sapiens, WI26VA4, read-out: CellTiter-Glo % of control, 300 nM, Experiment #2, replicates",17.6%
same,activity at 1 µM,"[2]; Homo sapiens, WI26VA4, read-out: CellTiter-Glo % of control, 1000 nM, Experiment #1, replicates",17.1%
same,activity at 1 µM,"[2]; Homo sapiens, WI26VA4, read-out: CellTiter-Glo % of control, 1000 nM, Experiment #2, replicates",29.9%
same,activity at 3 µM,"[2]; Homo sapiens, WI26VA4, read-out: CellTiter-Glo % of control, 3000 nM, Experiment #2, replicates",11%
same,activity at 10 µM,"[2]; Homo sapiens, WI26VA4, read-out: CellTiter-Glo % of control, 10000 nM, Experiment #1, replicates",1.85%
same,activity at 10 µM,"[2]; Homo sapiens, WI26VA4, read-out: CellTiter-Glo % of control, 10000 nM, Experiment #2, replicates",4.64%
same,activity at 30 µM,"[2]; Homo sapiens, WI26VA4, read-out: CellTiter-Glo % of control, 30000 nM, Experiment #2, replicates",1.49%
same,activity at 0.0003 µM,"[2]; Homo sapiens, WI26VA4, read-out: CellTiter-Glo % of control, average, 0.3 nM, average",103%
same,activity at 0.001 µM,"[2]; Homo sapiens, WI26VA4, read-out: CellTiter-Glo % of control, average, 1 nM, average",102%
same,activity at 0.01 µM,"[2]; Homo sapiens, WI26VA4, read-out: CellTiter-Glo % of control, average, 10 nM, average",92.4%
same,activity at 0.03 µM,"[2]; Homo sapiens, WI26VA4, read-out: CellTiter-Glo % of control, average, 30 nM, average",77.3%
same,activity at 0.1 µM,"[2]; Homo sapiens, WI26VA4, read-out: CellTiter-Glo % of control, average, 100 nM, average",30.6%
same,activity at 0.3 µM,"[2]; Homo sapiens, WI26VA4, read-out: CellTiter-Glo % of control, average, 300 nM, average",18.1%
same,activity at 1 µM,"[2]; Homo sapiens, WI26VA4, read-out: CellTiter-Glo % of control, average, 1000 nM, average",23.7%
same,activity at 3 µM,"[2]; Homo sapiens, WI26VA4, read-out: CellTiter-Glo % of control, average, 3000 nM, average",10.2%
same,activity at 10 µM,"[2]; Homo sapiens, WI26VA4, read-out: CellTiter-Glo % of control, average, 10000 nM, average",3.39%
same,activity at 30 µM,"[2]; Homo sapiens, WI26VA4, read-out: CellTiter-Glo % of control, average, 30000 nM, average",1.53%
same,activity at 100 µM,"[2]; Homo sapiens, WI26VA4, read-out: CellTiter-Glo % of control, average, 100000 nM, average",0.00424%
same,CellTiter-Glo LogIC50 (best-fit value),[2]; [4],1.708
same,CC50 at 72 h,[3],0.051 µM
